Experiments:
Settings in all cases: 72 h
BT-549 = tested on: BT-549
Outline: (§1)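 The plates used were 384-well plates holding compound at 5 concentrations in 10-fold steps across a compound-specific 10,000-fold range, into which breast cancer cell lines were seeded in 20 µl suspension. Following 72 h incubation, CellTox Green fluorescence was read at 485/520 nm, and CellTiter-Glo luminescence was read after 10 min at room temperature. Normalisation on each plate used 0.1 % DMSO and a positive kill control. Dose-response curves gave the EC50, which was censored at the top concentration.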

CAL-51 = tested on: CAL-51
Outline: as §1

MDA-MB-436 = tested on: MDA-MB-436
Outline: as §1

MDA-MB-468 = tested on: MDA-MB-468
Outline: as §1

Hs578T = tested on: Hs578T
Outline: as §1

MFM-223 = tested on: MFM-223
Outline: as §1

BT-474 = tested on: BT-474
Outline: as §1

CAL-120 = tested on: CAL-120
Outline: as §1

DU-4475 = tested on: DU-4475
Outline: as §1

HCC1143 = tested on: HCC1143
Outline: as §1

MCF-10A = tested on: MCF-10A
Outline: as §1

MDA-MB-231 = tested on: MDA-MB-231
Outline: as §1

SK-BR-3 = tested on: SK-BR-3
Outline: as §1

EC50, CellTiter-Glo (BT-549) [nM] | EC50, CellTiter-Glo (MDA-MB-436) [nM] | EC50, CellTiter-Glo (MDA-MB-468) [nM] | EC50, CellTiter-Glo (BT-474) [nM] | EC50, CellTiter-Glo (HCC1143) [nM] | EC50, CellTiter-Glo (MDA-MB-231) [nM] | EC50, CellTiter-Glo (SK-BR-3) [nM] | SMILES | EC50, CellTiter-Glo (CAL-51) [nM] | EC50, CellTiter-Glo (Hs578T) [nM] | EC50, CellTiter-Glo (MFM-223) [nM] | EC50, CellTiter-Glo (CAL-120) [nM] | EC50, CellTiter-Glo (DU-4475) [nM] | EC50, CellTiter-Glo (MCF-10A) [nM]
53.6 | > 10000 | 534 |  |  |  |  | Cc1c(Cn2c(C)nc3c(C(=O)O)cc(N4CCOCC4)cc32)cccc1C(F)(F)F | 8.16 |  |  |  |  | 
882 | 1090 | 25.2 | 912 | 8380 | 2480 |  | CO[C@@H](C(=O)N1Cc2[nH]nc(NC(=O)c3ccc(N4CCN(C)CC4)cc3)c2C1)c1ccccc1 [Danusertib] | 780 | 4060 | 86.5 | 2860 | 1530 | 628
406 |  | 28.4 | 74.7 | 121 | 125 | 933 | O=C(Nc1c[nH]nc1-c1nc2ccc(CN3CCOCC3)cc2[nH]1)NC1CC1 [AT9283] | 2.81 | 157 | 191 | 146 | 149 | 102
81.8 | 50.9 | 50.7 | 58.6 | 21.5 | 65.4 | 21.4 | Cn1cc(CNCC2CCN(c3ncc(C(=O)NO)cn3)CC2)c2ccccc21 [Quisinostat] | 78.7 | 59.1 | 70.7 | 74.2 | 24 | 92.8

Second part, the compound before the results:

SMILES | EC50, CellTiter-Glo (BT-549) [nM] | EC50, CellTiter-Glo (MDA-MB-436) [nM] | EC50, CellTiter-Glo (MDA-MB-468) [nM] | EC50, CellTiter-Glo (BT-474) [nM] | EC50, CellTiter-Glo (HCC1143) [nM] | EC50, CellTiter-Glo (MDA-MB-231) [nM] | EC50, CellTiter-Glo (SK-BR-3) [nM] | EC50, CellTiter-Glo (CAL-51) [nM] | EC50, CellTiter-Glo (Hs578T) [nM] | EC50, CellTiter-Glo (MFM-223) [nM] | EC50, CellTiter-Glo (CAL-120) [nM] | EC50, CellTiter-Glo (DU-4475) [nM] | EC50, CellTiter-Glo (MCF-10A) [nM]
Cc1ccc(Nc2nccc(N(C)c3ccc4c(C)n(C)nc4c3)n2)cc1S(N)(=O)=O [Pazopanib] | 4180 |  |  |  |  |  |  |  | > 10000 | 645 |  |  | 
CC(=O)OC[C@H]1O[C@@H]([S-])[C@H](OC(C)=O)[C@@H](OC(C)=O)[C@@H]1OC(C)=O.CCP(CC)CC.[Au+] [Auranofin] | 386 | 560 | 140 | 2390 | 559 | 1010 | 1730 | 199 | 1020 | 1460 | 2490 | 1870 | 1630
CC/C(=C(\c1ccc(O)cc1)c1ccc(OCCN(C)C)cc1)c1ccccc1 [4-hydroxytamoxifen] | 1900 | 7820 | 3660 |  |  | 3300 | 5720 |  |  | 8810 | 3010 |  | 
Cc1cccc(-c2nn3c(c2-c2ccnc4ccc(C(N)=O)cc24)CCC3)n1 [Galunisertib] |  |  |  |  |  |  |  | > 1000 |  |  |  |  | 
CCC/C=C/C=C/C(=O)O[C@H]1/C(=C/C(=O)OC)C[C@H]2C[C@H]([C@@H](C)O)OC(=O)C[C@H](O)C[C@@H]3C[C@H](OC(C)=O)C(C)(C)[C@](O)(C[C@@H]4C/C(=C/C(=O)OC)C[C@H](/C=C/C(C)(C)[C@]1(O)O2)O4)O3 [Bryostatin 1] | > 100 |  |  |  |  |  | 0.1 | 0.32 | 1.41 |  |  |  | 
C[C@]12O[C@H](C[C@]1(O)CO)n1c3ccccc3c3c4c(c5c6ccccc6n2c5c31)CNC4=O [Lestaurtinib] | 130 | 787 | 25.2 | 151 | 68.7 | 188 | 215 | > 1000 | 354 | 263 | 45.1 | 188 | 215
C[C@]12C=CC(=O)C=C1CC[C@@H]1[C@@H]2[C@@H](O)C[C@@]2(C)[C@H]1CC[C@]2(O)C(=O)CO [Prednisolone] |  |  |  |  |  |  |  |  |  |  | 99.1 |  | 
Nc1ccccc1NC(=O)c1ccc(CNc2nccc(-c3cccnc3)n2)cc1 [Mocetinostat] | 1060 | 4130 | 1840 | 2920 | 2250 | 2720 | 1660 | 1650 | 3430 | 4850 | 1600 | 1570 | 5300
